The nature of data set [1]: in vitro. In kind it is cell-based. Particulars: human. The method, then: Cell culture: RPTEC were maintained in MEM media supplemented with growth factors. HEPG2 cell line was maintained in Eagle's Minimum Essential Medium (EMEM) supplemented with fetal bovine serum to a final concentration of 10%.
90 minute cytotoxicity assay: Cells were plated in a 96-well format, and after overnight incubation, media was replaced with fresh media. Serial dilutions of StAMPs from a 5 mg/mL water stock, or vehicle, were added to the cells in a final volume of 100 μl. After incubating at 37° C. for 90 min, 50 μl of cell culture media was transferred to a clear 96-well plate, incubated with 50 μl of lactate dehydrogenase (LDH) assay reagent for 10 min, and absorbance measured at 490 nm on a microplate reader.
Renal toxicity was measured after 90 minutes of incubation, while liver toxicity was measured after 48 hours of incubation with StAMPs. N/A=not tested. The following apply to all peptides (i.e., StAMPs) listed in Tables A-C: Crosslinks (X^1—X^2 and X^3—X^4): (alk); N-terminus: —NH2; C-terminus: amidated with —NH2; counterion: Cl^−. The following apply to all peptides (i.e., StAMPs) listed in Table D: Crosslinks (X^1—X^2 and X^3—X^4): (alk); N-terminus: —NH2; C-terminus: as shown in table; counterion: Cl^−.
StAMP Micelle Formulation: DSPE-MPEG(2000) was suspended in buffered saline at 50-100 mg/mL overnight. StAMP stock solutions at 5-20 mg/mL in buffered saline were prepared and equal volumes of micelle and StAMP stock solution were mixed at the desired StAMP:Lipid ratio. Suspensions were allowed to sit for 5-10 minutes at room temperature before being used in in vitro and in vivo assays.
In Table E, the StAMP is StAMP 4 (Table A) and “Lipid”=DSPE-MPEG(2000).

For data set [2], the system named is S. aureus. The class given is cell-based, Staphylococcus aureus. In short, it runs like this: (§1)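 Colonies are grown overnight at 37 °C, diluted and regrown 3-4 h. Bacteria in MHB or MHB II are then added to serial peptide dilutions to reach 5×10^5 CFU/ml. Plates are incubated 20-24 h at 37 °C and scored for the lowest concentration without visible growth.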
Data set [3] deals with E. coli. The class given is cell-based, Escherichia coli. In short, it runs like this: as §1
Data set [4] concerns P. aeruginosa. The class given is cell-based, Pseudomonas aeruginosa. In short, it runs like this:
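MIC taken as lowest peptide concentration with no visible growth after 20-24 h at 37 °C. Peptide serial dilutions from water stocks met P. aeruginosa inoculum (5×10^5 CFU/ml final) in MHB or MHB II, per a CLSI-adapted microbroth protocol.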

Data set [5] has as its system K. pneumoniae. The class given is cell-based, Klebsiella pneumoniae. In short, it runs like this:
as §1

In data set [6] the test system is A. baumannii. The class given is cell-based, Acinetobacter baumannii. In a few lines: as §1
A short description of data set [7]: in vitro. Particulars: human. The class given is cell-based. In short, it runs like this:
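Cytotoxicity read by CellTiter-Glo luminescence after 48 h at 37 °C exposure to serially diluted StAMPs or vehicle. HepG2 cells were grown in EMEM plus 10% FBS and given 4 h to attach before dosing; peptides came from a 5 mg/mL aqueous stock.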
The source holds these as a separate data set.

[8] abbreviates: Inhibitory Concentration at 50% Cytotoxicity (IC50) Human Liver Cells (HepG2).

Converted amounts (≈) assume the structure as drawn. Read-outs that look alike come from different tables or passages of the source. Positions of bridges follow the written chain, without caps; N, C: chain ends. Non-standard residues stand in square brackets, D forms with d. Residues, ends and D or L forms follow the SMILES beside them. PEG5 = NCCOCCOCCOCCOCCOCCC(=O)O; S5 = C=CCCC[C@](C)(N)C(=O)O; Dap = NC[C@H](N)C(=O)O; PEG2 = NCCOCCOCCC(=O)O

Take `CC(C)[C@@H]1NC(=O)[C@@](C)(NC(=O)[C@H](C)NC(=O)[C@H](CCCCN)NC(=O)CNC(=O)[C@H](Cc2ccccc2)NC(=O)[C@H](CCCCN)NC(=O)[C@H](CCCCN)NC(=O)[C@H](CCCCN)NC(=O)[C@H](CCCCN)NC(=O)[C@H](CCCCN)NC(=O)[C@]2(C)CCCC=CCCC[C@](C)(NC(=O)CN)C(=O)NCC(=O)N[C@@H](CCCCN)C(=O)N[C@@H](Cc3ccccc3)C(=O)N2)CCCC=CCCC[C@@](C)(C(=O)N[C@@H](C)C(=O)N[C@@H](CCCCN)C(=O)N[C@@H](CCCCN)C(=O)NCCOCCOCCC(N)=O)NC(=O)[C@H](CCC(=O)O)NC(=O)CNC1=O` [compound 72] (H-G[S5]GKF[S5]KKKKKFGKA[S5]VGE[S5]AKK[PEG2]-NH2; staple 2-6, 16-20): the IC50 at 90 min in data set [1] came out at 200 µg/mL (≈ 73.4 µM). Further, the “Minimum Inhibitory Concentration (MIC) S. aureus” value in data set [2] is >64 µg/mL. For the same molecule, in data set [3], the “Minimum Inhibitory Concentration (MIC) E. coli” value stood at 2 µg/mL. For the same molecule, the “Minimum Inhibitory Concentration (MIC) P. aeruginosa” value in data set [4] is 4 µg/mL. In addition, the “Minimum Inhibitory Concentration (MIC) K. pneumoniae” value in data set [5] was 4 µg/mL. The “Minimum Inhibitory Concentration (MIC) A. baumannii” value in data set [6] was determined as 2 µg/mL. This molecule showed an IC50 at 48 hours in data set [7] (setting [8]) of 275 µg/mL (≈ 101 µM).

For the molecule `CC(C)[C@@H]1NC(=O)[C@@](C)(NC(=O)[C@H](C)NC(=O)[C@H](CCCCN)NC(=O)CNC(=O)[C@H](Cc2ccccc2)NC(=O)[C@H](CCCCN)NC(=O)[C@H](CCCCN)NC(=O)[C@H](CCCCN)NC(=O)[C@H](CCCCN)NC(=O)[C@H](CCCCN)NC(=O)[C@]2(C)CCCC=CCCC[C@](C)(NC(=O)CN)C(=O)NCC(=O)N[C@@H](CCCCN)C(=O)N[C@@H](Cc3ccccc3)C(=O)N2)CCCC=CCCC[C@@](C)(C(=O)N[C@@H](C)C(=O)N[C@@H](CCCCN)C(=O)N[C@@H](CCCCN)C(=O)NCC(=O)NCC(=O)N[C@@H](CCC(=O)O)C(N)=O)NC(=O)[C@H](CCC(=O)O)NC(=O)[C@H](Cc2ccccc2)NC1=O` [compound 33] (H-G[S5]GKF[S5]KKKKKFGKA[S5]VFE[S5]AKKGGE-NH2; staple 2-6, 16-20), in data set [1] (90 minutes of incubation, read-out: Inhibitory Concentration at 50% Cytotoxicity (IC50) Human Renal Proximal Tubule Epithelial Cells (RPTEC)), the IC50 at 90 min was ~200 µg/mL (≈ 69 µM). Further, the “Minimum Inhibitory Concentration (MIC) S. aureus” value in data set [2] was >64 µg/mL. Also, the “Minimum Inhibitory Concentration (MIC) E. coli” value in data set [3] worked out at 2 µg/mL. In addition, the “Minimum Inhibitory Concentration (MIC) P. aeruginosa” value in data set [4] is 4 µg/mL. Moreover, the “Minimum Inhibitory Concentration (MIC) K. pneumoniae” value in data set [5] worked out at 4 µg/mL. Further, the “Minimum Inhibitory Concentration (MIC) A. baumannii” value in data set [6] turned out to be 2 µg/mL. Besides, in data set [7] (48 hours of incubation, read-out: Inhibitory Concentration at 50% Cytotoxicity (IC50) Human Liver Cells (HepG2)), the IC50 at 48 hours is > 200 µg/mL.

In the case of `CC(C)[C@@H]1NC(=O)[C@@](C)(NC(=O)[C@H](C)NC(=O)[C@H](CN)NC(=O)CNC(=O)[C@H](Cc2ccccc2)NC(=O)[C@H](CN)NC(=O)[C@H](CN)NC(=O)[C@H](CN)NC(=O)[C@H](CN)NC(=O)[C@H](CN)NC(=O)[C@]2(C)CCCC=CCCC[C@](C)(NC(=O)CN)C(=O)NCC(=O)N[C@@H](CN)C(=O)N[C@@H](Cc3ccccc3)C(=O)N2)CCCC=CCCC[C@@](C)(C(=O)N[C@@H](C)C(=O)N[C@@H](CN)C(=O)N[C@@H](CN)C(=O)NCC(N)=O)NC(=O)[C@H](CCC(=O)O)NC(=O)CNC1=O` [compound 76] (H-G[S5]G[Dap]F[S5][Dap][Dap][Dap][Dap][Dap]FG[Dap]A[S5]VGE[S5]A[Dap][Dap]G-NH2; staple 2-6, 16-20), in data set [1], the IC50 at 90 min is > 200 µg/mL. The “Minimum Inhibitory Concentration (MIC) S. aureus” value in data set [2] was 64 µg/mL. In addition, the “Minimum Inhibitory Concentration (MIC) E. coli” value in data set [3] is 1 µg/mL. For the same molecule, the “Minimum Inhibitory Concentration (MIC) P. aeruginosa” value in data set [4] turned out to be 16 µg/mL. The “Minimum Inhibitory Concentration (MIC) K. pneumoniae” value in data set [5] worked out at 16 µg/mL. Also, in data set [6], the “Minimum Inhibitory Concentration (MIC) A. baumannii” value worked out at 16 µg/mL. In addition, the IC50 at 48 hours in data set [7] (setting [8]) is > 200 µg/mL.

Regarding `CC(C)[C@@H]1NC(=O)[C@@](C)(NC(=O)[C@H](C)NC(=O)[C@H](CCCCN)NC(=O)CNC(=O)[C@H](Cc2ccccc2)NC(=O)[C@H](CCCCN)NC(=O)[C@H](CCCCN)NC(=O)[C@H](CCCCN)NC(=O)[C@H](CCCCN)NC(=O)[C@H](CCCCN)NC(=O)[C@]2(C)CCCC=CCCC[C@](C)(NC(=O)CN)C(=O)NCC(=O)N[C@@H](CCCCN)C(=O)N[C@@H](Cc3ccccc3)C(=O)N2)CCCC=CCCC[C@@](C)(C(=O)N[C@@H](C)C(=O)N[C@@H](CCCCN)C(=O)N[C@@H](CCCCN)C(=O)NCCOCCOCCOCCOCCOCCC(N)=O)NC(=O)[C@H](CCC(=O)O)NC(=O)CNC1=O` [compound 75] (H-G[S5]GKF[S5]KKKKKFGKA[S5]VGE[S5]AKK[PEG5]-NH2; staple 2-6, 16-20), the IC50 at 90 min in data set [1] was > 200 µg/mL. Further, the “Minimum Inhibitory Concentration (MIC) S. aureus” value in data set [2] is >64 µg/mL. Also, the “Minimum Inhibitory Concentration (MIC) E. coli” value in data set [3] came to 4 µg/mL. The “Minimum Inhibitory Concentration (MIC) P. aeruginosa” value in data set [4] amounted to 4 µg/mL. In addition, the “Minimum Inhibitory Concentration (MIC) K. pneumoniae” value in data set [5] stood at 8 µg/mL. The “Minimum Inhibitory Concentration (MIC) A. baumannii” value in data set [6] stood at 2 µg/mL. The molecule also had an IC50 at 48 hours in data set [7] (setting [8]) of 357 µg/mL (≈ 125 µM).

With `CC(C)[C@@H]1NC(=O)[C@@](C)(NC(=O)[C@H](C)NC(=O)[C@H](CCCCN)NC(=O)CNC(=O)[C@H](Cc2ccccc2)NC(=O)[C@H](CCCCN)NC(=O)[C@H](CCCCN)NC(=O)[C@H](CCCCN)NC(=O)[C@H](CCCCN)NC(=O)[C@H](CCCCN)NC(=O)[C@]2(C)CCCC=CCCC[C@](C)(NC(=O)CN)C(=O)NCC(=O)N[C@@H](CCCCN)C(=O)N[C@@H](Cc3ccccc3)C(=O)N2)CCCC=CCCC[C@@](C)(C(=O)N[C@@H](C)C(=O)N[C@@H](CCCCN)C(=O)N[C@@H](CCCCN)C(N)=O)NC(=O)[C@H](CCC(=O)O)NC(=O)CNC1=O` [compound 4] (H-G[S5]GKF[S5]KKKKKFGKA[S5]VGE[S5]AKK-NH2; staple 2-6, 16-20), the IC50 at 90 min in data set [1] was 105 µg/mL (≈ 40.9 µM). Further, the “Minimum Inhibitory Concentration (MIC) S. aureus” value in data set [2] is >64 µg/mL. For the same molecule, the “Minimum Inhibitory Concentration (MIC) E. coli” value in data set [3] came to 2 µg/mL. Further, in data set [4], the “Minimum Inhibitory Concentration (MIC) P. aeruginosa” value worked out at 3 µg/mL. Moreover, the “Minimum Inhibitory Concentration (MIC) K. pneumoniae” value in data set [5] turned out to be 6 µg/mL. For the same molecule, in data set [6], the “Minimum Inhibitory Concentration (MIC) A. baumannii” value was 3 µg/mL. For the same molecule, the IC50 at 48 hours in data set [7] (setting [8]) is 127 µg/mL (≈ 49.5 µM).

As to `CC(C)[C@@H]1NC(=O)[C@@](C)(NC(=O)[C@H](C)NC(=O)[C@H](CCCCN)NC(=O)CNC(=O)[C@H](Cc2ccccc2)NC(=O)[C@H](CCCCN)NC(=O)[C@H](CCCCN)NC(=O)[C@H](CCCCN)NC(=O)[C@H](CO)NC(=O)[C@H](Cc2c[nH]c3ccccc23)NC(=O)[C@]2(C)CCCC=CCCC[C@](C)(NC(=O)CN)C(=O)NCC(=O)N[C@@H](CCCCN)C(=O)N[C@@H](Cc3ccccc3)C(=O)N2)CCCC=CCCC[C@@](C)(C(=O)N[C@@H](C)C(=O)N[C@@H](CCCCN)C(=O)N[C@@H](CCCCN)C(N)=O)NC(=O)[C@H](CCC(=O)O)NC(=O)CNC1=O` [compound 60] (H-G[S5]GKF[S5]WSKKKFGKA[S5]VGE[S5]AKK-NH2; staple 2-6, 16-20), the IC50 at 90 min in data set [1] was 108 µg/mL (≈ 41.8 µM). For the same molecule, the “Minimum Inhibitory Concentration (MIC) S. aureus” value in data set [2] is >64 µg/mL. Also, the “Minimum Inhibitory Concentration (MIC) E. coli” value in data set [3] amounted to 4 µg/mL. Further, the “Minimum Inhibitory Concentration (MIC) P. aeruginosa” value in data set [4] turned out to be 8 µg/mL. Also, in data set [5], the “Minimum Inhibitory Concentration (MIC) K. pneumoniae” value came out at 32 µg/mL. For the same molecule, the “Minimum Inhibitory Concentration (MIC) A. baumannii” value in data set [6] was 4 µg/mL. In addition, in data set [7] (setting [8]), the IC50 at 48 hours was found to be 56 µg/mL (≈ 21.7 µM).

Values taken from patent US20240174723A1, “STAPLED ANTIMICROBIAL PEPTIDES (STAMPS) AND USES THEREOF” (Lytica Therapeutics, Inc., priority 2021, published 2024).
